Source: ChEMBL document CHEMBL6127052, “Discovery of membrane-targeting amphiphilic honokiol derivatives containing an oxazolethione moiety to combat methicillin-resistant Staphylococcus aureus (MRSA) infections” (Eur J Med Chem, 2024)
Activity calls are given as the source filed them. No cut-off for these calls is given here.

Experiments:
[1] = Toxicity in KM mouse assessed as change in HGB level at 20 mg/kg, sc measured after 24 hrs; format: organism-based; conditions: in vivo
[2] = system: Staphylococcus aureus; test: Disruption of cell membrane in methicillin-resistant Staphylococcus aureus clinical isolate M12 assessed as accumulation of intracellular ROS level incubated for 40 mins by DCFH-DA probe based analysis; format: functional, organism-based; conditions: dose <= 128.0 µg/ml
[3] = system: Staphylococcus aureus; test: (§1) Antibacterial activity against methicillin-resistant Staphylococcus aureus clinical isolate M12 infected in sepsis BALB/c mouse model assessed as decrease in degeneration of hepatocytes at 12 mg/kg, ip administered consecutively at 12 hr-interval for 24 hrs measured after 24 hrs post-last dose by H and E staining based analysis; format: functional, organism-based; conditions: time 48.0 hrs
[4] = system: Staphylococcus aureus; test: Bactericidal activity against Staphylococcus aureus ATCC 29213 at 8 times MIC incubated for 6 hrs by time-kill assay relative to control; format: functional
[5] = system: Staphylococcus aureus; test: Antibacterial activity against methicillin-resistant Staphylococcus aureus clinical isolate M12 infected in KM mouse assessed as decrease in pus formation in subcutaneous area at 10 mg/kg, sc measured after 24 hrs; format: functional, organism-based
[6] = Toxicity in KM mouse assessed as animal survival at 5 to 80 mg/kg, sc; format: organism-based; conditions: in vivo, dose 5-80 mg/kg
[7] = system: Staphylococcus aureus; test: Antibacterial activity against methicillin-resistant Staphylococcus aureus clinical isolate M11 by CLSI based micro-broth dilution method; format: functional
[8] = system: Staphylococcus aureus; test: Antibacterial activity against methicillin-resistant Staphylococcus aureus clinical isolate M12 infected in KM mouse assessed as decrease in bacterial survival rate at 10 mg/kg, sc measured after 24 hrs by drop-plate counting method relative to control; format: functional
[9] = Toxicity in BALB/c mouse assessed as pathological change in white medulla of spleen at 15 mg/kg, ip bid for 7 days; format: organism-based; conditions: in vivo, 168 h, time 7 day
[10] = system: Staphylococcus aureus; test: as §1, with “necrosis in” for “degeneration of”; format: functional, organism-based; conditions: time 48.0 hrs
[11] = system: Staphylococcus aureus; test: Antibacterial activity against methicillin-resistant Staphylococcus aureus clinical isolate M12 infected in KM mouse assessed as decrease in neutrophils at subcutaneous tissues at 5 to 10 mg/kg, sc measured after 24 hrs; format: functional, organism-based; conditions: dose 5-10 mg/kg
[12] = Toxicity in KM mouse assessed as mental abnormality at 5 to 80 mg/kg, sc; format: organism-based; conditions: in vivo, dose 5-80 mg/kg
[13] = system: Staphylococcus aureus; test: Antibacterial activity against methicillin-resistant Staphylococcus aureus clinical isolate M12 incubated for 16 to 18 hrs in presence of cardiolipin; format: functional; conditions: time 16-18 hrs
[14] = Toxicity in BALB/c mouse assessed as inflammatory cell infiltration in hepatocytes at 15 mg/kg, ip bid for 7 days; format: organism-based; conditions: in vivo, 168 h, time 7 day
[15] = Toxicity in KM mouse assessed as necrosis in lung epithelial cells at 20 mg/kg, sc measured after 24 hrs by H and E staining based analysis; format: organism-based; conditions: in vivo
[16] = system: Staphylococcus aureus; test: as §1, with “pathological change in white medulla” for “degeneration”, “spleen” for “hepatocytes”; format: functional, organism-based; conditions: time 48.0 hrs
[17] = system: Staphylococcus aureus; test: Induction of morphological changes in methicillin-resistant Staphylococcus aureus clinical isolate M12 assessed as torn cell membrane at 8 times MIC incubated for 4 hrs by SEM analysis; format: functional, organism-based
[18] = Hemolytic activity in sheep erythrocytes incubated for 1 hr by absorbance based assay; format: toxicity, cell-based, Ovis aries, Erythrocyte
[19] = system: Staphylococcus aureus; test: Antibacterial activity against methicillin-resistant Staphylococcus aureus clinical isolate M12 infected in KM mouse assessed as reduction in TNF-alpha level at infection site at 5 mg/kg, sc measured after 24 hrs by ELISA; format: functional
[20] = system: Staphylococcus aureus; test: Antibacterial activity against methicillin-resistant Staphylococcus aureus clinical isolate M12 infected in sepsis BALB/c mouse model assessed as decrease in bacterial load in kidney at 12 mg/kg, ip administered consecutively at 12 hr-interval for 24 hrs measured after 24 hrs post-last dose; format: functional; conditions: time 48 hrs
[21] = system: Staphylococcus aureus; test: Disruption of cell membrane in methicillin-resistant Staphylococcus aureus clinical isolate M12 assessed as fold increase in protein leakage at 8 times MIC incubated for 4 hrs by BCA assay relative to control; format: functional
[22] = Toxicity in KM mouse infected with methicillin-resistant Staphylococcus aureus clinical isolate M12 assessed as histopathological abnormality in lung at 5 to 10 mg/kg, sc measured after 24 hrs by H and E staining based analysis; format: organism-based; conditions: in vivo, dose 5-10 mg/kg
[23] = system: Staphylococcus aureus; test: Antibacterial activity against methicillin-resistant Staphylococcus aureus clinical isolate M12 infected in KM mouse assessed as decrease in bacterial load in skin tissues at 10 mg/kg, sc measured after 24 hrs by drop-plate counting method (reference value: 6.7); format: functional; parameters: scale not given: the % may be the effect or the level left
[24] = Toxicity in KM mouse assessed as degeneration of renal tubular epithelial cells at 20 mg/kg, sc measured after 24 hrs by H and E staining based analysis; format: organism-based; conditions: in vivo
[25] = Toxicity in KM mouse assessed as pathological change in liver at 20 mg/kg, sc measured after 24 hrs by H and E staining based analysis; format: organism-based; conditions: in vivo
[26] = system: Staphylococcus aureus; test: Antibacterial activity against methicillin-resistant Staphylococcus aureus clinical isolate M12 infected in KM mouse assessed as decrease in bacterial survival rate at 5 mg/kg, sc measured after 24 hrs by drop-plate counting method relative to control; format: functional
[27] = Toxicity in KM mouse assessed as edema in hepatocytes at 20 mg/kg, sc measured after 24 hrs by H and E staining based analysis; format: organism-based; conditions: in vivo
[28] = Toxicity in KM mouse assessed as pathological change in white medulla of spleen at 20 mg/kg, sc measured after 24 hrs by H and E staining based analysis; format: organism-based; conditions: in vivo
[29] = Toxicity in BALB/c mouse assessed as necrosis in hepatocytes at 15 mg/kg, ip bid for 7 days; format: organism-based; conditions: in vivo, 168 h, time 7 day
[30] = system: Staphylococcus aureus; test: Induction of morphological changes in methicillin-resistant Staphylococcus aureus clinical isolate M12 assessed as concavity in cell membrane at 8 times MIC incubated for 4 hrs by SEM analysis; format: functional, organism-based
[31] = system: Staphylococcus aureus; test: as §1, with “pathological change in red medulla” for “degeneration”, “spleen” for “hepatocytes”; format: functional, organism-based; conditions: time 48.0 hrs
[32] = system: Staphylococcus aureus; test: Disruption of cell membrane in methicillin-resistant Staphylococcus aureus clinical isolate M12 assessed as fold increase in DNA leakage at 8 times MIC incubated for 4 hrs by […] relative to control; format: functional
[33] = system: Staphylococcus aureus; test: Bactericidal activity against methicillin-resistant Staphylococcus aureus clinical isolate M12 at 8 times MIC incubated upto 8 hrs by time-kill assay; format: functional, organism-based
[34] = Toxicity in BALB/c mouse assessed as change in mental status at <15 mg/kg, ip bid for 7 days; format: organism-based; conditions: in vivo, 168 h, time 7 day
[35] = Toxicity in KM mouse assessed as formation of hard lumps at administration site at >40 mg/kg, sc; format: organism-based; conditions: in vivo
[36] = Stability in sheep plasma infected with methicillin-resistant Staphylococcus aureus clinical isolate M12 at 16 ug/ml pretreated compound with plasma for 6 hrs followed by bacterial infection for 16 to 18 hrs; format: ADME, cell-free, Ovis aries; conditions: at 16 µg/mL, time 22-24 hrs
[37] = system: Staphylococcus aureus; test: Antibacterial activity against methicillin-resistant Staphylococcus aureus clinical isolate M17 by CLSI based micro-broth dilution method; format: functional
[38] = system: Staphylococcus aureus; test: Antibacterial activity against methicillin-resistant Staphylococcus aureus clinical isolate M13 by CLSI based micro-broth dilution method; format: functional

SMILES: C=CCc1cc(-c2ccc(OCCC[N+](C)(C)CC(=O)NCCCC)c(CC=C)c2)c2oc(=S)n(Cc3ccc(F)cc3)c2c1.[Br-]
- Activity [1]: Non-Toxic
- Activity [2]: Dose-Dependent Effect
- Activity [3]: Active
- Activity [4]: 100%
- Activity [5]: Active
- Activity [6]: Non-Toxic
- MIC [7]: 4 µg/mL
- Activity [8]: 99.67%
- Activity [9]: Non-Toxic
- Activity [10]: Active
- Activity [11]: Active
- Activity [12]: Non-Toxic
- MIC [13]: 32 µg/mL
- Activity [14]: Non-Toxic
- Activity [15]: Non-Toxic
- Activity [16]: Active
- Activity [17]: Active
- HC50 at 1 h [18]: 157 µg/mL
- Activity [19]: 91.5 pg/mL
- Activity [20]: 1.45 log10CFU/g
- fold change (FC) [21]: ~4
- Activity [22]: Non-Toxic
- Activity [23]: 4.1%
- Activity [24]: Non-Toxic
- Activity [25]: Non-Toxic
- Activity [26]: 92.72%
- Activity [27]: Non-Toxic
- Activity [28]: Non-Toxic
- Activity [29]: Non-Toxic
- Activity [30]: Active
- Activity [31]: Active
- fold change (FC) [32]: ~4
- Activity [33]: Active
- Activity [34]: Non-Toxic
- Activity [35]: Toxic
- Stability [36]: Stable
- MIC [37]: 4 µg/mL
- MIC [38]: 4 µg/mL
